# Source: ChEMBL document CHEMBL1201862, “PubChem BioAssay data set” (2004)
# The source made the active and inactive calls.
# Experiments:
# Keap1/Nrf2 = Keap1/Nrf2 (Homo sapiens, UniProt Q14145); experiment: disruptors of Keap1 binding to Nrf2 peptide – biochemical, fluorescence polarization, cherry-picked samples, dose response (AID 588683)
# ORF 73 = biological target: T1, ORF 73 (Human herpesvirus 8, UniProt O40947); experiment: KSHV LANA DNA-binding disruption – biochemical, fluorescence polarization, cherry-picked samples, dose response (AID 504725); design: species or system Human gammaherpesvirus 8;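 also: fluorescence polarization of a labeled DNA duplex reporting LANA DNA binding; potency is for inhibitors that block LANA binding to the DNA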
# T1 sequence (O40947 whole entry): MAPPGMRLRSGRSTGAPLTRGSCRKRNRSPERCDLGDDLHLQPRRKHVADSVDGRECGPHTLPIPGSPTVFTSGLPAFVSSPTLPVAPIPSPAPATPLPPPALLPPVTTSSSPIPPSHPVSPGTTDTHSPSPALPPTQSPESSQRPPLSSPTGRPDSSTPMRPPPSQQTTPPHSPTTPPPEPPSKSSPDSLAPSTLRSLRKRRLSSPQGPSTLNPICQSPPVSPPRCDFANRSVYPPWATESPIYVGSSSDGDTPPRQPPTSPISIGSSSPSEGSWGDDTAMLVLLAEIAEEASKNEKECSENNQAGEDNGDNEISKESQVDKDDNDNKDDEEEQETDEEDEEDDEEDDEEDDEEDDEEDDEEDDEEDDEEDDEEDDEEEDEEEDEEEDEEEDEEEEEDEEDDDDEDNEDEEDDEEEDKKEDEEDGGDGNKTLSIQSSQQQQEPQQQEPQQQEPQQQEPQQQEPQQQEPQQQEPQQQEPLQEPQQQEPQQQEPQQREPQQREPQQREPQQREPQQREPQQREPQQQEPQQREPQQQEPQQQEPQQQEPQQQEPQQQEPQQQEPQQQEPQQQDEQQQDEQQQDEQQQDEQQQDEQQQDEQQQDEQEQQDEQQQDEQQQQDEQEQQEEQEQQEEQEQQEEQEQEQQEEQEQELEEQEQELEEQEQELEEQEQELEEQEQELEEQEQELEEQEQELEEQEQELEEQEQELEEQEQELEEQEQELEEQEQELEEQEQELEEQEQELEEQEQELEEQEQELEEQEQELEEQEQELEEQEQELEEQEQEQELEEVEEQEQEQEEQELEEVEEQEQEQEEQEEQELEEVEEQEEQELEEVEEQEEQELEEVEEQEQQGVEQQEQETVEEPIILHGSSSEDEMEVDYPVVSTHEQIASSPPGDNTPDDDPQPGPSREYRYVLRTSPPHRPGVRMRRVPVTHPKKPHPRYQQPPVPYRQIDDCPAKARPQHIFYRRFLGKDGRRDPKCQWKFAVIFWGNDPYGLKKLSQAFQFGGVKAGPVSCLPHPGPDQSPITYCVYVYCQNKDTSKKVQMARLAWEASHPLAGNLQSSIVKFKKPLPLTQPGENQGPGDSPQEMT
# [1] = biological target: T2, Endoribonuclease toxin MazF (Escherichia coli K-12, UniProt P0AE70); experiment: activation of MazEF endoribonuclease cleavage – biochemical, fluorescence, single-stranded RNA substrate, uHTS hits, dose response (AID 588481); type: functional
# T2 sequence (P0AE70 whole entry): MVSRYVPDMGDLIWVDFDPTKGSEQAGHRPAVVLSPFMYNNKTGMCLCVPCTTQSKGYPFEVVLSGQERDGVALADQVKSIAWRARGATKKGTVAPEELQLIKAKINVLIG
# HeLa = experiment: viability loss in HeLa cells – cell-based, 24 h, cherry-picked samples, cytotoxicity control, dose response (AID 504726); type: functional; conditions: Homo sapiens;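 also: potency for cytotoxicity as loss of luminescence signal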
# [2] = biological target: UDP-galactopyranose mutase (Mycobacterium tuberculosis, UniProt P9WIQ1); experiment: Inhibitors of Mycobacterium tuberculosis UDP-galactopyranose mutase (UGM) enzyme Measured in Biochemical System Using Plate Reader - 2105-02_Inhibitor_Dose_CherryPick_Activity. [Related pubchem assays (depositor defined):AID504439]
# Chain of UDP-galactopyranose mutase (P9WIQ1 whole entry): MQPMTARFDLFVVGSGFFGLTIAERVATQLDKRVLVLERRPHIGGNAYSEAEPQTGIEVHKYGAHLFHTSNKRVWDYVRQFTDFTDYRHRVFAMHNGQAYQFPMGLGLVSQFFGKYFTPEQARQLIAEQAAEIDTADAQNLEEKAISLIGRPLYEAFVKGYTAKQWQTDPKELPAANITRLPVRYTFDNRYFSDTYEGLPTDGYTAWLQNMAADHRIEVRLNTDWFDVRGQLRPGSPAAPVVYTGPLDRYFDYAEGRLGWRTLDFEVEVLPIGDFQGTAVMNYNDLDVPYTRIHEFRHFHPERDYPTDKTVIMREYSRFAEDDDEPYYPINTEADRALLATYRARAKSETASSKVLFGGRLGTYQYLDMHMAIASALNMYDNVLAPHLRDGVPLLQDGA
# [3] = biological target: T2, Endoribonuclease toxin MazF; experiment: substrate-only fluorescence increase artefacts – biochemical, single-stranded RNase substrate, counter-screen for MazEF activator project, dose response (AID 588502); type: functional
# [4] = biological target: T3, Serine/threonine-protein phosphatase (Candida dubliniensis (strain CD36 / CBS 7987 / NCPF 3949 / NRRLY-17841) (Yeast), UniProt B9W6M3); experiment: Fluorescence Cell-Based Secondary Assay to Identify Inhibitors of Calcineurin. [Related pubchem assays (depositor defined):AID1979, AID2007]; type: functional
# T3 sequence (B9W6M3 whole entry): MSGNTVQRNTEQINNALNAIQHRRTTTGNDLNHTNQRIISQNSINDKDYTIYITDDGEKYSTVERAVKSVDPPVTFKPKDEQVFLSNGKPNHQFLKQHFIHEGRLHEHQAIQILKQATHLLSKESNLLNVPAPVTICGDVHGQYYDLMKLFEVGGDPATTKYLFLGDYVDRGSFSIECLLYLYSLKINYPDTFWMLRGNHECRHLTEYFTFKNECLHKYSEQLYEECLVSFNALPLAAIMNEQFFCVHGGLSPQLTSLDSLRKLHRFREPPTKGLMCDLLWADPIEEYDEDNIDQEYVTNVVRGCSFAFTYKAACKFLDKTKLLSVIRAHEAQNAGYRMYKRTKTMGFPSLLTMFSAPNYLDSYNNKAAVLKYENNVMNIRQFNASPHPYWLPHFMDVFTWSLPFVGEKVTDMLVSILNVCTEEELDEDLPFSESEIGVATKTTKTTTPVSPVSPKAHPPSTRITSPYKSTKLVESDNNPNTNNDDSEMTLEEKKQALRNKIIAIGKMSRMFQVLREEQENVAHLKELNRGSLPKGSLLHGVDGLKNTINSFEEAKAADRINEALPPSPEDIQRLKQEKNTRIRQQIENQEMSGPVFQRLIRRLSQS
# [5] = microbe, parasite or virus in culture; type: functional; conditions: Mycobacterium tuberculosis
# [6] = test system: Streptococcus sp. 'group A'; experiment: Streptococcus pyogenes SK(-)GAS viability under kanamycin – luminescence, BacTiterGlo, confirmation, counter-screen for streptokinase expression inhibitor project, dose response (AID 1900); type: functional, organism-based
# [7] = fluconazole-exposed Candida albicans growth modulators – fluorescence, retest, confirmation (AID 2467); type: functional, cell-based
# Streptococcus = experiment: GAS UMAA2166 growth inhibition – luminescence, BacTiterGlo, counter-screen for streptokinase expression inhibitor project, dose response (AID 1915); type: functional, organism-based;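 also: potency for reduction of bacterial viability or growth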
# [8] = biological target: Heat shock protein HSP 90-alpha (Homo sapiens, UniProt P07900); type: functional, organism-based
# [9] = NIH-3T3 fibroblast cytotoxicity, dose response, cytotoxicity control, cell-based, fluorescence, Alamar Blue, secondary assay (AID 2327); type: functional;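 also: NIH-3T3 mouse fibroblasts cultured with fluconazole at 8 µg/mL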
# [10] = biological target: ATP-dependent molecular chaperone HSP82 (Candida albicans (strain WO-1) (Yeast), UniProt C4YTQ8); experiment: steroid-induced GRE reporter decrease in yeast – S. cerevisiae, luminescence, Hsp90 inhibitor project, dose response (AID 2400); type: functional, cell-based;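 also: beta-galactosidase luminescence from glucocorticoid response element reporter as proxy for Hsp90 function; inhibitor potency where signal loss means Hsp90 inhibition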
# Chain of ATP-dependent molecular chaperone HSP82 (C4YTQ8 whole entry): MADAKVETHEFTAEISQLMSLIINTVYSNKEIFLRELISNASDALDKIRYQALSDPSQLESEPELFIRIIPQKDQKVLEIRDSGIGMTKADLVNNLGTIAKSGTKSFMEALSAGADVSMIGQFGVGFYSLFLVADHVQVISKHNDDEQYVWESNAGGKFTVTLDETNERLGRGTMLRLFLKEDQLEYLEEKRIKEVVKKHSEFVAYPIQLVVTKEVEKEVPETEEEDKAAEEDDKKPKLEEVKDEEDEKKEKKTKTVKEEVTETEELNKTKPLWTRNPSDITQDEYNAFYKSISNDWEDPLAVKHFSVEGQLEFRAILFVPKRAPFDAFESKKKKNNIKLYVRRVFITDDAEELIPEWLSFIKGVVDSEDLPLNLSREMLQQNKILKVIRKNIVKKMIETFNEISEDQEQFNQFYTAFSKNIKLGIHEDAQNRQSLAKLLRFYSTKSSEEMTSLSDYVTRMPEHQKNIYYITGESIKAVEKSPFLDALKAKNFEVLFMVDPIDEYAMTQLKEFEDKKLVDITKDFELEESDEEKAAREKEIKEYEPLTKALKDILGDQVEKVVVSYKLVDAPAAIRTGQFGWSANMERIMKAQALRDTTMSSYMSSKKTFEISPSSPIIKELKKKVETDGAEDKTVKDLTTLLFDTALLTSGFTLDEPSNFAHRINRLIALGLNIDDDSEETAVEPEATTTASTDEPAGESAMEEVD
# [11] = Trypanosoma cruzi growth suppression in host cells – NIH3T3 host cells, beta-gal luminescence, confirmation (AID 2044); type: functional, cell-based;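 also: intracellular parasites grown in NIH/3T3 mouse fibroblasts as host cells; luminescent beta-galactosidase reporter signal from transgenic T. cruzi replicating inside host cells; inhibitors lower the luminescence signal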
# [12] = biological target: T3, Serine/threonine-protein phosphatase; experiment: blockers of CaCl2-induced CDRE-lacZ signaling – S. cerevisiae, luminescence, secondary, dose response (AID 2388); type: functional, cell-based;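 also: yeast reporter cells carrying a calcineurin-responsive lacZ construct stimulated with calcium chloride; luminescent beta-galactosidase reporter signal in whole cells rather than isolated phosphatase activity; potency for inhibition where a drop in reporter signal means calcineurin blockade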
# [13] = NIH3T3 cell viability loss – ATP luminescence, mouse fibroblasts, counter-screen, dose response (AID 2010); type: functional, cell-based;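 also: cells exposed to compound for about 90 hours before reading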
# INS1 = experiment: INS-1E survival protection against cytokine death – cell-based, luminescence, retest, dose response (AID 449756); type: functional; conditions: Rattus norvegicus;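 also: cell death triggered by IL-1 beta plus TNF-alpha plus IFN-gamma mixture; protective hits raise ATP signal compared with cytokine alone wells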
# Vero = experiment: cells; type: functional; conditions: Chlorocebus sabaeus
# [14] = biological target: T4, Type-1 angiotensin II receptor (Homo sapiens, UniProt P30556); experiment: antagonism of angiotensin II type 1 receptor – cell-based, uHTS hits, selectivity assay for APJ receptor antagonist project, dose response (AID 463214); type: functional;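 also: antagonist potency against angiotensin II stimulated AT1 response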
# T4 sequence (P30556 whole entry): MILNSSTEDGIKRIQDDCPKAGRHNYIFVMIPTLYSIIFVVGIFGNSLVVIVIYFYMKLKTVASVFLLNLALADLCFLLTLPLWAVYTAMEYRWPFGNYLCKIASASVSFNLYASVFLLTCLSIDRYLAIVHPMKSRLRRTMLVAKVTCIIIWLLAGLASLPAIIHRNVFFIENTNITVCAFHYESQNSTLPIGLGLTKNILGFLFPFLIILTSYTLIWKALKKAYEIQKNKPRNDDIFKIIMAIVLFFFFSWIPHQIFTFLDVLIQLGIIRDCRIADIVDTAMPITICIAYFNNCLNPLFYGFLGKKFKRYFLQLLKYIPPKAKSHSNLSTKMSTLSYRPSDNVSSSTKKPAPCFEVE
# Jurkat [15] = experiment: blockers of NF-kB activation in T cells – Jurkat, luciferase reporter, luminescence, B- and T-cell, dose response (AID 489004); type: functional, cell-based; conditions: Homo sapiens;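 also: NF-kB luciferase reporter Jurkat cells stimulated with PMA plus ionomycin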
# [16] = biological target: E3 ubiquitin-protein ligase Mdm2 (Homo sapiens, UniProt Q00987); experiment: MDM2-luc reporter signal enhancers, multi-concentration potency testing, MDM2 ubiquitin-protein ligase inhibitor program, whole-cell format, luminescence detection, 384-well microplate (AID 1394); type: functional;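 also: MDM2 E3 inhibitors raise luminescence so EC50 is for signal enhancement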
# Chain of E3 ubiquitin-protein ligase Mdm2 (Q00987 whole entry): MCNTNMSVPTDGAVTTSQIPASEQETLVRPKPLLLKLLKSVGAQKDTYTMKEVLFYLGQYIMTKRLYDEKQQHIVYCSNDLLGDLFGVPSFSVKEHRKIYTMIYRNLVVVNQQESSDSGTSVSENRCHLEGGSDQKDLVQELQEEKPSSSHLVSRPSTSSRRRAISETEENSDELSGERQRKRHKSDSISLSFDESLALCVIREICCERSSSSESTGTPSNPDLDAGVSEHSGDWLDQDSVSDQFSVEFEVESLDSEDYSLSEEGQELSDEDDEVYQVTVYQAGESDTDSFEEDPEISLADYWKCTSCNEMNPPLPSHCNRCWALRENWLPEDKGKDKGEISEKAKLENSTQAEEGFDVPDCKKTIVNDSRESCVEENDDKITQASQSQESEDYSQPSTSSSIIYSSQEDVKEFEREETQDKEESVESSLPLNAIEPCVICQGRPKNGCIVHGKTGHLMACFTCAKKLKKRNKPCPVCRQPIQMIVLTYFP
# [17] = biological target: G-protein coupled receptor 55 (Homo sapiens, UniProt Q9Y2T6); experiment: inhibition of LPI-stimulated GPR55 beta-arrestin translocation – imaging, U2OS, beta-arrestin-GFP, LPI agonist, primary screen (AID 2013); type: functional;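 also: antagonist potency measured as reduced agonist-driven arrestin aggregation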
# Chain of G-protein coupled receptor 55 (Q9Y2T6 whole entry): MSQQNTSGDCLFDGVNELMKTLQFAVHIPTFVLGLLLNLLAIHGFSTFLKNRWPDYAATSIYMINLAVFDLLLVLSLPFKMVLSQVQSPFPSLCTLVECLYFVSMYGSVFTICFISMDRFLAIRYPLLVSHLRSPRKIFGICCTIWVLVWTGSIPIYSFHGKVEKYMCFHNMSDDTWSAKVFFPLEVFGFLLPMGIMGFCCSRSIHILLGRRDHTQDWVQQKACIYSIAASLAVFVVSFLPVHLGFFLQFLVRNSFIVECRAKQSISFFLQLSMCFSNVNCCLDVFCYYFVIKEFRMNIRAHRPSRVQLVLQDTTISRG
# [18] = HEK-293T viability loss, compound-treated – cell-based, uHTS hits, cytotoxicity control for B/T-cell NF-kB inhibitor project, dose response (AID 489019); type: functional;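 also: IC50 reflects cytotoxicity as loss of cell viability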
# Paired box protein Pax-8 = Paired box protein Pax-8 (Homo sapiens, UniProt Q06710); experiment: PAX8 transcriptional activity inhibition in RMG-I – RMG-I cells, luciferase, cherry-pick, dose response (AID 687027); type: functional, cell-based;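 also: luciferase reporter driven by Pax8 target thyroperoxidase promoter measured by SteadyGlo luminescence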
# Chain of Paired box protein Pax-8 (Q06710 whole entry): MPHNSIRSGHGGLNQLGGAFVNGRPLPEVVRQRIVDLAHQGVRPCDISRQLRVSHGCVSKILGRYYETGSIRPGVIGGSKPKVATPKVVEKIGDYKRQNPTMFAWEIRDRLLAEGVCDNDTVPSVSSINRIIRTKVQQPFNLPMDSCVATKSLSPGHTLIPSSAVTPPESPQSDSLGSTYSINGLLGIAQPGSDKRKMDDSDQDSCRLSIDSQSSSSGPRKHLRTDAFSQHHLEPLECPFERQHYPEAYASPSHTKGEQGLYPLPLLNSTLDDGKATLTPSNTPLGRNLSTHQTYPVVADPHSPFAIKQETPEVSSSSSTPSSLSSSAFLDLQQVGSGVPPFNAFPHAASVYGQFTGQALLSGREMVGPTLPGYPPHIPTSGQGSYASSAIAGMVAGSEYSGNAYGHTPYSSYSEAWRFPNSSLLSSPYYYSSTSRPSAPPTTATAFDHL
# Beta-galactosidase = Beta-galactosidase (Escherichia coli, UniProt Q8VNN2); experiment: PubChem AID 485352; type: functional
# Chain of Beta-galactosidase (Q8VNN2 whole entry): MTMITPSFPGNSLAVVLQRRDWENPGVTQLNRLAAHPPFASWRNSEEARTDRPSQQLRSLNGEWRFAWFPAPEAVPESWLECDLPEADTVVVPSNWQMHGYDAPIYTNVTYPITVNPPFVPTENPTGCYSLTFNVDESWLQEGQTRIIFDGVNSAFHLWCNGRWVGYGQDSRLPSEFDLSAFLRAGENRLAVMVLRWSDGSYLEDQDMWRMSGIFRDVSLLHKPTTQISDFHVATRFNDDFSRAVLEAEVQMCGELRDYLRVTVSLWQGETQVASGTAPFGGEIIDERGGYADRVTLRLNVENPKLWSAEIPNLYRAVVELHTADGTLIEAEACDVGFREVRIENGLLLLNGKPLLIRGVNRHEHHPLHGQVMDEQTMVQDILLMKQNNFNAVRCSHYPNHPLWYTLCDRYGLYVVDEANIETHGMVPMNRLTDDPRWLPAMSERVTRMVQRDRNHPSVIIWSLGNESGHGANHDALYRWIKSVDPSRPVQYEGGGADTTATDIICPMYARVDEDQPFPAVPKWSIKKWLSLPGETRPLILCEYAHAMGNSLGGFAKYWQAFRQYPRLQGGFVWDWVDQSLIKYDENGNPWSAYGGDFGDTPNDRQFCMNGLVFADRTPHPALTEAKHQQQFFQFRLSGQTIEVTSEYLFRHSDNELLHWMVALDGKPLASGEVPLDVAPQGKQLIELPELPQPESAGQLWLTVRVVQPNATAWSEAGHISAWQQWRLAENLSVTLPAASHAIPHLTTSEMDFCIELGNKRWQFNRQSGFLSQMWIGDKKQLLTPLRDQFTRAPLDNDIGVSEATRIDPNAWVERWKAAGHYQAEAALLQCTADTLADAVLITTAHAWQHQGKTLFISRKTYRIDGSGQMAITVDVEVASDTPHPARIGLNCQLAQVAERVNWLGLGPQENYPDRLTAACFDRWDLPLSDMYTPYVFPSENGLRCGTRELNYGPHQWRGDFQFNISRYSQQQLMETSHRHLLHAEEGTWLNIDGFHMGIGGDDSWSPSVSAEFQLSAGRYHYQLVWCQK
# HEK293 [19] = experiment: SAR Analysis of small molecule inhibitors of B-cell specific antigen receptor-induced NF-kB activation in a HEK-293T cell line using a luminescence assay - Set 2. [Related pubchem assays (depositor defined):AID435022, AID435025, AID489021]; type: functional, cell-based; conditions: Homo sapiens
# Jurkat [20] = experiment: SAR Analysis of small molecule inhibitors of […] specific antigen receptor-induced NF-kB activation in a Jurkat cell line using a luminescence assay - Set 3. [Related pubchem assays (depositor defined):AID435022, AID435025, AID465]; type: functional, cell-based; conditions: Homo sapiens
# HEK293 [21] = experiment: HEK293T cell viability loss, resazurin readout – resazurin fluorescence, cytotoxicity control for NF-kB activator project, SAR follow-up (AID 493251); type: functional, cell-based; conditions: Homo sapiens
# HEK293 [22] = experiment: cells; conditions: Homo sapiens
# [23] = viability of PTEN-deleted HCT116 cells – cell-based, HCT116 PTEN knockout, dose response (AID 1047); type: functional;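 also: HCT116 colon tumor cells with PTEN knocked out; cells exposed to compound for 60 hours before readout; potency for loss of cell viability measured by luminescence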
# HEK293 [24] = experiment: cells; conditions: Homo sapiens; remark: listed apart in the source
# [25] = viability of HCT116 lacking mutant beta-catenin – cell-based, human colon tumor, dose response (AID 1045); type: functional;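 also: HCT116 colon tumor cells with beta catenin knocked out; cells exposed to compound for 60 hours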
# Chain of Keap1/Nrf2 (Q16236 whole entry): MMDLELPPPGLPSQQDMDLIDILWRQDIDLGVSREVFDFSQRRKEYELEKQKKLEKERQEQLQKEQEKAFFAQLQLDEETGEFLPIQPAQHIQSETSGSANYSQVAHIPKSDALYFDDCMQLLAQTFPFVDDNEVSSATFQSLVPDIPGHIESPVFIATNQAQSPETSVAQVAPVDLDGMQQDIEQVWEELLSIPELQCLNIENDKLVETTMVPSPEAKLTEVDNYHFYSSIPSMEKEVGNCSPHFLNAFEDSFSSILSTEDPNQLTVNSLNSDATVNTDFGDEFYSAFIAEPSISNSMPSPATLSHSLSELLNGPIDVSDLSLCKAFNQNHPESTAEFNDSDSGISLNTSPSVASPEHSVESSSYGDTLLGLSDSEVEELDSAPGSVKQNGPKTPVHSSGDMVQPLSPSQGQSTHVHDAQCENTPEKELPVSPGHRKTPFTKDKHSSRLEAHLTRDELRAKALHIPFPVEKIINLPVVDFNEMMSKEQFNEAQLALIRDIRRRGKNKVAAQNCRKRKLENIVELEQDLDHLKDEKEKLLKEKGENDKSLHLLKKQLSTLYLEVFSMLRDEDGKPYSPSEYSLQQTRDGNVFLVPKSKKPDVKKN
# Chain of Keap1/Nrf2 (Q14145 whole entry): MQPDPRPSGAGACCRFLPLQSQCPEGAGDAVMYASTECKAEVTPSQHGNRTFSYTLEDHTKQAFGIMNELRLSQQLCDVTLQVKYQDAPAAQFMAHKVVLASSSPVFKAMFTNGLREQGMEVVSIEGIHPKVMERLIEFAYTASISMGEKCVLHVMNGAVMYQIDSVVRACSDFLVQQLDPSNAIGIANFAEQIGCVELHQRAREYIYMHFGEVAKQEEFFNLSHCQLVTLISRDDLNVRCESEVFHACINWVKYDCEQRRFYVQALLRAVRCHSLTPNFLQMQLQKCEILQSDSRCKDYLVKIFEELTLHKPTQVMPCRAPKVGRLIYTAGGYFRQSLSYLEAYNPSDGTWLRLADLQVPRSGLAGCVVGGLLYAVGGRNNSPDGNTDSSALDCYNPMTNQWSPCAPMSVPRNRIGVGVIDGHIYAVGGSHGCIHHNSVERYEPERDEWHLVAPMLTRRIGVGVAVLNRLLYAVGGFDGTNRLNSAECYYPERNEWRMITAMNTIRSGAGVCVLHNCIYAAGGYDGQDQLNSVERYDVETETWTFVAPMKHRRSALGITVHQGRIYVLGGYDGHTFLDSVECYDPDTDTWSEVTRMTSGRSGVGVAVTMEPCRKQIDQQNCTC
smiles,measurement,setting,value
Cn1nc(-c2ccccc2)c2nc3ccccc3nc21,AC50,Keap1/Nrf2,14 µM (active)
same,AC50,ORF 73,42.5 µM (active)
same,EC50,[1],> 99 µM (inactive)
same,AC50,HeLa,44.5 µM (active)
same,AC50,[2],11.3 µM (active)
same,EC50,[3],> 99 µM (inactive)
O=C(Oc1c(Cl)cc(Cl)c2cccnc12)c1cccs1,EC50,[4],> 285 µM (inactive)
same,CC50,[5],17.3 µM (active)
same,EC50,[6],1.47 µM (active)
same,EC50,[7],0.122 µM (active)
same,EC50,Streptococcus,1.27 µM (active)
same,AC50,[8],3.28 µM (active)
same,EC50,[9],27.3 µM (active)
same,EC50,[10],16 µM (active)
same,EC50,[11],2.41 µM (active)
same,EC50,[12],> 180 µM (inactive)
same,EC50,[13],9.43 µM (active)
same,AC50,INS1,8.83 µM (active)
same,CC50,Vero,16.5 µM (active)
C=C1C(=O)O[C@@H]2C[C@@H](C)[C@@H]3C=CC(=O)[C@@]3(C)[C@@H](OC(C)=O)[C@H]12 [ANGUSTIBALIN],IC50,[14],22 µM (not active)
same,IC50,Jurkat [15],0.99 µM (active)
same,EC50,[16],7.68 µM (not active)
same,IC50,[17],4.49 µM (active)
same,IC50,[18],> 80 µM (inactive)
same,AC50,Paired box protein Pax-8,0.742 µM (active)
same,EC50,Beta-galactosidase,> 40 µM (inactive)
same,AC50,INS1,2.13 µM (active)
CC(C)(C)c1ccc(-c2noc(CCC(=O)NC3CCCCC3)n2)cc1,IC50,HEK293 [19],2.68 µM (active)
same,IC50,Jurkat [20],19.9 µM (active)
same,IC50,HEK293 [21],> 80 µM (inactive)
CC1=CC(C)(C)Nc2ccc(OC(=O)CCN3C(=O)c4ccccc4C3=O)cc21,EC50,HEK293 [22],> 59.6 µM (inactive)
same,EC50,[23],10.8 µM (active)
same,EC50,HEK293 [24],> 59.6 µM (inactive)
same,EC50,[25],6.3 µM (active)
